In patent publication US20260287579A1, “METHOD FOR NON-INVASIVE HYPOXIA DETECTION” (BioVentures, LLC, priority 2023, published 2026):

Assays:
[1] = system: 4T1 murine breast cancer cells; test: Bead-assisted flow cytometry for CD81+/Pimo+ vesicles from hypoxic or oxic cell cultures; assay type: cell-based; details: 100 μM pimonidazole, 24 hours, 0.5% oxygen vs regular air
Method: Isolating exosome from cell culture and Flow Cytometry analysis of isolated exosomes utilizing bead-assisted assay (FIGS. 10A-10B): 4T1 murine breast cancer cells were cultured in DMEM medium containing 10% Fetal Bovine Serum (FBS) at 37° C. in a humidified incubator with 5% CO2 and sub-cultured twice a week. For isolation of exosomes from 4T1 cultures, 1 million cells were plated in 10 cm plates and allowed to adhere overnight in the incubator. Cells were then washed with PBS, and the medium was changed to a medium containing 5% exosome-depleted FBS. Plates were grouped into four sets of five plates each. 100 μM pimonidazole was added to two sets, half of plates were incubated in a regular air incubator, and the other half in an incubator containing 0.5% Oxygen. After 24 hours, the medium was collected and subjected to sequential centrifugation at 1200, 3000, 10000, and 35000 rpm for 5, 15, 45 minutes, and 4 hours respectively. The final pellet was washed with PBS and centrifuged at 35000 rpm for 2 hours before being resuspended in 100 μl of PBS. The exosome amount was estimated using a BCA protein assay and the exosomes size was confirmed using a Nanoparticle Tracking Analyzer (NTA Instrument). […] Following the manufacture protocols, compensation beads were used to optimize fluorescence compensation settings and correct for spectral overlap between fluorophores. […]

[2] = system: exosomes isolated from hypoxic cells; test: Fluorescent plate reader detection of pimonidazole adducts in isolated exosomes with FITC anti-pimonidazole antibody; assay type: cell-based; details: FITC-labeled anti-pimonidazole antibody, plate reader 485/528 nm
Description: FIGS. 10A-10B are charts showing results from a flow cytometry-based bead assay designed to allow conventional flow cytometers to assess the presence of various markers on exosome sized particles. This is accomplished by using beads of known size which are bound by exosomes if they have the marker (antibody target) in question. It is clear that exosomes derived from hypoxic cells have an augmented amount of pimonidazole adducts present. The inventors also tested for the general immunoreactivity of hypoxic-cell derived exosomes using a standard plate reader and a commercially available fluorescently conjugated anti-pimonidazole antibody. Briefly, isolated exosomes from cell culture medium from mouse serum samples were, suspended in 1% bovine serum albumin, and incubated with a fluorescently tagged anti-pimonidazole antibody. After a period of 2 hours or overnight, the exosomes were washed twice, resuspended in PBS and the fluorescent signal was determined using a Cytation 5 multi-mode plate reader.
Labeling exosomes with FITC-conjugated anti-pimonidazole antibody and quantifying the labeled exosomes'(FIG. 11): 10-40 μg of exosomes were utilized for antibody labeling in a 100 μl total volume containing 1% BSA as a blocking reagent. […] Fluorescence readings were obtained using a Cytation 5 plate reader at excitation/emission wavelengths of 485/528 nm (+/−20 nm).

## O=[N+]([O-])c1nccn1CC(O)CN1CCCCC1 (centres unmarked) [pimonidazole]
[1]
  enhancement in percent of vesicles labeled in hypoxic vs oxic conditions: 4 fold
[2]
  increase in fluorescence signal, exosomes from hypoxic cells vs cells grown in normal oxygen: ~2.5 fold
